Measurements from patent US10363251B2, “(+)-morphinans as antagonists of toll-like receptor 9 and therapeutic uses thereof” (Mallinckrodt LLC, priority 2009, dated 2019).
Entries after “also recorded” stand apart in the source; their conditions may differ.

Experiments:
[1] = test system: chronic constriction injury (CCI) neuropathic pain model; assay: Reversal of allodynia (von Frey) in CCI rats, 4 days of dosing, Example 4; assay type: in vivo, rat; settings: i.p. once a day for 4 days from day 14; tested 3 hrs after dosing; ultra low to high dose; vs saline
Protocol: Allodynia was induced in a group of (male, Sprague-Dawley) rats essentially as described above in Example 3. Prior to surgery, animals were tested to establish their baseline von Frey scores. Any animal with a Log absolute von Frey score lower than 4.65 on either leg was excluded from the study. CCI surgery was performed on the left sciatic nerve as detailed above. On days 4 and 14 post-surgery, the animals were tested using the von Frey test of mechanical allodynia to ensure that allodynia was established.
Beginning at about day 14 post-surgery, the animals were dosed once a day for 4 days. Compounds II-25, II-93, II-62, and III-2 were tested. All drugs were administered intraperitoneally (i.p.). Allodynia was tested prior to and again 3 hrs after each dosing. Drug administration and testing was done blindly. After the 4th day of dosing, the animals were sacrificed, cardiac perfusion was performed, and spinal cords were removed and stored for further analysis.
All data were analyzed using 2-way ANOVA's with Bonferroni's post hoc test compared to saline unless otherwise stated. Area under curve (AUC) was calculated using Graphpad Prism and comparisons were made using 1-way ANOVA with Dunnet's post hoc test.

TLR9 [2] = target: T1, TLR9 (Homo sapiens, UniProt Q9NR96); assay: TLR9 screening of (+)-morphinan library, SEAP reporter in HEK293 cells expressing TLR9; assay type: cell-based; settings: activator ODN2006; for OD 650 nm (mean ± sd): control (no activator) 0.14, activator 1.42 OD
T1 construct: expressed in transfected cells; host or cells: HEK293
T1 sequence (Q9NR96 26-1032): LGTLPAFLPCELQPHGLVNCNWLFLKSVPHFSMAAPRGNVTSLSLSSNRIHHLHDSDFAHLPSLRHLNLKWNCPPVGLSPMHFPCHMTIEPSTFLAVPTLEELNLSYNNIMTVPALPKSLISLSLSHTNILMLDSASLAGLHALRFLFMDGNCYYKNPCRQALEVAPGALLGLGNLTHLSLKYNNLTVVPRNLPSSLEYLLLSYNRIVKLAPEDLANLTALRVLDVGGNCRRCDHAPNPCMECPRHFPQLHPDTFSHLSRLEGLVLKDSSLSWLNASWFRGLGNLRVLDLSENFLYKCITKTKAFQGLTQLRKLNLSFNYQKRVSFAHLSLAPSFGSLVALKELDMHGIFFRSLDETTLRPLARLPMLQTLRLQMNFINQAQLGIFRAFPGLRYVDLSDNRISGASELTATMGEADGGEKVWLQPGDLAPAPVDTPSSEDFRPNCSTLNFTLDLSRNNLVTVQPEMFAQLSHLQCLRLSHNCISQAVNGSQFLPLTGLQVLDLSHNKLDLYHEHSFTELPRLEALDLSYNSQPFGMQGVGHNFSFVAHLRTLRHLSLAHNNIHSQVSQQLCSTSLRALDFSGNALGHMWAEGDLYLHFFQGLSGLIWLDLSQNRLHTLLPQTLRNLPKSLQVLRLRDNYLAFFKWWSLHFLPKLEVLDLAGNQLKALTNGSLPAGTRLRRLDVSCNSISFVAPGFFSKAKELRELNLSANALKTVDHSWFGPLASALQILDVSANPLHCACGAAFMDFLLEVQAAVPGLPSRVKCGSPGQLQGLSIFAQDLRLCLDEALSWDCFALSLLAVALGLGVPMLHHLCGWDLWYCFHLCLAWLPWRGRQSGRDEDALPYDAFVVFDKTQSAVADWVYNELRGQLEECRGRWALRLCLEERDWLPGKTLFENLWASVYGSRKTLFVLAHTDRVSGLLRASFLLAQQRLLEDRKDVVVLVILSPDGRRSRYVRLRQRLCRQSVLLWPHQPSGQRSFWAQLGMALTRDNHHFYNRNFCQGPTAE
In short: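 HEK293 cells expressing TLR9 with an NF-κB-inducible SEAP reporter were preincubated with compound at 10 μM and 100 nM for 30 min at 37 °C, then stimulated with ODN2006. SEAP was read as OD 650 nm after 16-20 h, in triplicate.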

[3] = test system: hepatic ischemia reperfusion (IR) injury; assay: Hepatic ischemia reperfusion (IR) injury model; assay type: in vivo, mouse
Protocol: Anesthetized mice were subjected to 1 hour of hepatic ischemia by occluding the vasculature supplying the left and median lobes (ischemic lobes) of the liver by a microvascular clamp. Thereafter, the blood supply was resumed (reperfusion). Some animals were sacrificed after 3 hour of reperfusion, and others after 12 hours or reperfusion. The experimental group received Cmpd II-78 at a dose of 80 mg/kg given intraperitoneally 1 hour prior to starting ischemia. The compound was administered before the start of ischemia to mimic the presumed clinical timing of delivery.
Livers were sectioned, stained, examined, and scored (Suzuki scoring system) based on the presence and/or severity of sinusoidal congestion, cytoplasmic vacuolization, and necrosis of parenchymal cells, as indicated in the table below. The levels of serum alanine transaminase (ALT) were also measured using a standard assay.
IL-1β, MCP-1, and NLPR3 have pro-inflammatory and tissue damaging properties, and IL-1R antagonist (IL-1Ra) has anti-inflammatory and pro-reparative functions in the liver. MAP kinases are part of an important cytoplasmic signaling cascade that are known to be activated (i.e., phosphorylated) by IR. The levels of IL-1β, MCP-1, NLPR3, and IL-1Ra mRNA were determined in whole liver (at the 12 hour time point) using standard techniques (e.g., RT-PCR). The activation of MAP kinases was determined in whole liver lysates by Western blotting using phospho-specific antibodies (12 hour time point).

TLR9 [4] = assay: IL-1β up-regulation in peritoneal macrophages by TLR9 agonist ODN2395; assay type: cell-based
From the text: TLR9 signalling involves activation of NF-κB and IRF downstream pathways. The (+)-morphinan inhibited both of these pathways following activation of TLR9 (but not activation of TLR4 or other receptors). The type C TLR9 agonist, ODN2395, and the TL4 agonist, LPS, both induce up-regulation of IL-1β in peritoneal macrophages via activation of NF-κB.

[5] = whole liver, 12 hours of reperfusion

Row | Compound | Reversal of allodynia (von Frey) [1] | OD 650 nm (mean ± sd) (TLR9 [2]; 100 nM) | OD 650 nm (mean ± sd) (TLR9 [2]; 10 μM) | inhibition at 0.1 µM (TLR9 [2]; HEK293, read-out: % Inhibition (mean), 100 nM) | inhibition at 10 µM (TLR9 [2]; HEK293, read-out: % Inhibition (mean), 10 μM) | Histological Suzuki score (hepatic IR injury) ([3]; 80 mg/kg ip 1 hour prior to ischemia, 1 h ischemia, 3 and 12 hours of reperfusion) | IR-induced serum ALT levels ([3]; 80 mg/kg ip, 3 and 12 hours of reperfusion) | Liver injury (serum ALT) ([3]; 80 mg/kg ip, 3 hour time point) | Liver injury (serum ALT) ([3]; 80 mg/kg ip, 12 hour time point) | IR-induced cleavage and activation of TLR9 (western blotting) ([3]; liver) | IR-induced activation of MAP kinases (western blotting) ([3]; whole liver lysates, 12 hour time point) | Anti-inflammatory molecule IL-1Ra mRNA relative to β-actin [3, 5] | IR-induced pro-inflammatory cytokines (IL-1β, MCP-1, NLPR3 mRNA relative to β-actin) [3, 5] | IL-1β mRNA up-regulation (NF-κB pathway) (TLR9 [4])
1 | C=CCN1CC[C@]23c4c5ccc(O)c4O[C@H]2C(=O)CC[C@]3(O)[C@H]1C5 [(+)-Naloxone, (+)-naloxone] | not effective at reversing allodynia | – | – | – | – | – | – | – | – | – | – | – | – | –
2 | CN[C@@H]1CC[C@]2(O)[C@@H]3Cc4ccc(O)c5c4[C@]2(CCN3CC2CC2)[C@@H]1O5 [II-78] | – | 0.14 ± 0.02 OD | 0.11 ± 0.01 OD | 90% | 92% | reduced hepatic ischemic reperfusion (IR) injury | reduced IR-induced serum alanine transaminase (ALT) levels | trend towards reduction | significantly reduced liver injury | reduction of IR-induced cleavage and activation of LTR9 | reduction of IR-induced activation of MAP kinases | increased an anti-inflammatory molecule | reduced IR-induced pro-inflammatory cytokines | response was inhibited; also recorded: reduced both NFκB- and IRF-dependent pathways downstream of TLR9
